Assay results as given in patent US6737383B1, “Herbicidal oxadiazolidines” (priority 1999, dated 2004).

Legend:
[1] = test system: rice; assay: Test B flood test rice; format: in vivo, Oryza sativa
Summary of the method: (§1)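 Read-out is a visual response score from 0 (no effect) to 10 (complete control), assigned by comparison with untreated controls. Treatment was applied at the 2-leaf stage, and plants stayed in the greenhouse for twelve to sixteen days before scoring.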

[2] = test system: bedstraw; assay: Test B pre/postemergence bedstraw; format: in vivo, Galium aparine
Summary of the method: (§2)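 Test chemicals in a non-phytotoxic solvent mixture with surfactant were sprayed preemergence onto planted seeds and postemergence onto plants 2 to 18 cm tall (1- to 4-leaf stage). After twelve to sixteen days in a greenhouse, injury was visually rated against untreated controls from 0 (no effect) to 10 (complete control).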

[3] = test system: blackgrass; assay: Test B pre/postemergence blackgrass; format: in vivo, Alopecurus myosuroides
Summary of the method: as §2

[4] = test system: rape; assay: Test B pre/postemergence rape; format: in vivo, Brassica napus
Summary of the method: as §2

[5] = test system: sugar beet; assay: Test B pre/postemergence sugar beet; format: in vivo, Beta vulgaris
Summary of the method: as §2

[6] = test system: corn; assay: Test B pre/postemergence corn; format: in vivo, Zea mays
Summary of the method: as §2

[7] = test system: duck salad; assay: Test B flood test duck salad; format: in vivo, Heteranthera limosa
Summary of the method: as §1

[8] = test system: soybean; assay: Test B pre/postemergence soybean; format: in vivo, Glycine max
Summary of the method: as §2

[9] = test system: purple nutsedge; assay: Test B pre/postemergence purple nutsedge; format: in vivo, Cyperus rotundus
Summary of the method: as §2

[10] = test system: surinam grass; assay: Test B pre/postemergence surinam grass; format: in vivo, Brachiaria decumbens
Summary of the method: as §2

[11] = test system: smallflower flatsedge; assay: Test B flood test smallflower flatsedge; format: in vivo, Cyperus difformis
Summary of the method: as §1

[12] = test system: wheat; assay: Test B pre/postemergence wheat; format: in vivo, Triticum aestivum
Summary of the method: as §2

[13] = test system: bamyardgrass; assay: Test B flood test barnyardgrass; format: in vivo, Echinochloa crus-galli
Summary of the method: as §1

[14] = test system: crabgrass; assay: Test B pre/postemergence crabgrass; format: in vivo, Digitaria sanguinalis
Summary of the method: as §2

[15] = test system: wild oat; assay: Test B pre/postemergence wild oat; format: in vivo, Avena fatua
Summary of the method: as §2

[16] = test system: velvetleaf; assay: Test B pre/postemergence velvetleaf; format: in vivo, Abutilon theophrasti
Summary of the method: as §2

[17] = test system: cocklebur; assay: Test B pre/postemergence cocklebur; format: in vivo, Xanthium strumarium
Summary of the method: as §2

[18] = Rate 62 g/ha, headed Pre-emergence (flood test species), scale 0 to 10 (0 no effect, 10 complete control)
[19] = Rate 125 g/ha, Pre-emergence, flood test species, scale 0 to 10 where 0 is no effect and 10 is complete control
[20] = Rate 250 g/ha, Pre-emergence, flood-test species, scale 0 to 10, 0 is no effect, 10 is complete control
[21] = Rate 500 g/ha, Pre-emergence, flood test species, scale 0 to 10 (0 no effect, 10 complete control)
[22] = Postemergence, Rate 125 g/ha, scale 0 to 10, 0 is no effect, 10 is complete control
[23] = Preemergence, Rate 62 g/ha, scale of 0 to 10 where 0 is no effect and 10 is complete control
[24] = Preemergence, Rate 250 g/ha, scale of 0 to 10 where 0 is no effect and 10 is complete control
[25] = Rate 62 g/ha, Postemergence, scale 0 to 10 (0 no effect, 10 complete control)
[26] = Rate 250 g/ha, Postemergence, scale of 0 to 10 where 0 is no effect and 10 is complete control
[27] = Rate 500 g/ha, Postemergence, scale 0 to 10, 0 no effect, 10 complete control
[28] = Preemergence, Rate 500 g/ha, scale of 0 to 10 where 0 is no effect and 10 is complete control

CC(C)N(C(=O)n1oc(=O)n(-c2ccc3ccccc3c2)c1=O)c1ccc(F)cc1F [Compound 335]
Rice plant response rating [1, 18]: 0 | Rice plant response rating [1, 19]: 0 | Rice plant response rating [1, 20]: 0 | Rice plant response rating [1, 21]: 0 | Plant response rating, Bedstraw [2, 22]: 0 | Bedstraw plant response rating [2, 23]: 0 | Bedstraw plant response rating (0 to 10 scale) ([2]; Preemergence, Rate 125 g/ha): 0 | Bedstraw plant response rating [2, 24]: 0 | Bedstraw plant response rating [2, 25]: 0 | Plant response rating, Bedstraw [2, 26]: 0 | Plant response rating, Bedstraw [2, 27]: 4 | Plant response rating, Blackgrass [3, 22]: 0 | Blackgrass plant response rating [3, 23]: 0 | Blackgrass plant response rating (0 to 10 scale) ([3]; Preemergence, Rate 125 g/ha): 0 | Blackgrass plant response rating [3, 24]: 0 | Blackgrass plant response rating [3, 28]: 0 | Blackgrass plant response rating [3, 25]: 0 | Plant response rating, Blackgrass [3, 26]: 0 | Plant response rating, Blackgrass [3, 27]: 0 | Plant response rating, Rape [4, 22]: 0 | Rape plant response rating [4, 23]: 0 | Rape plant response rating (0 to 10 scale) ([4]; Preemergence, Rate 125 g/ha): 0 | Rape plant response rating [4, 24]: 0 | Rape plant response rating [4, 28]: 0 | Rape plant response rating [4, 25]: 0 | Plant response rating, Rape [4, 27]: 0 | Plant response rating, Sugarbeets [5, 22]: 0 | Sugarbeets plant response rating [5, 23]: 0 | Sugarbeets plant response rating (0 to 10 scale) ([5]; Preemergence, Rate 125 g/ha): 0 | Sugarbeets plant response rating [5, 24]: 0 | Sugarbeets plant response rating [5, 28]: 0 | Sugarbeets plant response rating [5, 25]: 0 | Plant response rating, Sugarbeets [5, 27]: 0 | Plant response rating, Corn [6, 22]: 0 | Corn plant response rating [6, 23]: 0 | Corn plant response rating (0 to 10 scale) ([6]; Preemergence, Rate 125 g/ha): 0 | Corn plant response rating [6, 24]: 0 | Corn plant response rating [6, 28]: 0 | Corn plant response rating [6, 25]: 0 | Plant response rating, Corn [6, 27]: 0 | Ducksalad plant response rating [7, 18]: 0 | Ducksalad plant response rating [7, 19]: 0 | Ducksalad plant response rating [7, 20]: 0 | Ducksalad plant response rating [7, 21]: 0 | Plant response rating, Soybean [8, 22]: 2 | Soybean plant response rating [8, 23]: 0 | Soybean plant response rating (0 to 10 scale) ([8]; Preemergence, Rate 125 g/ha): 0 | Soybean plant response rating [8, 24]: 0 | Soybean plant response rating [8, 28]: 0 | Soybean plant response rating [8, 25]: 1 | Plant response rating, Soybean [8, 27]: 2 | Plant response rating, Nutsedge [9, 22]: 0 | Nutsedge plant response rating [9, 23]: 0 | Nutsedge plant response rating (0 to 10 scale) ([9]; Preemergence, Rate 125 g/ha): 0 | Nutsedge plant response rating [9, 24]: 0 | Nutsedge plant response rating [9, 28]: 0 | Nutsedge plant response rating [9, 25]: 0 | Plant response rating, Nutsedge [9, 27]: 0 | Plant response rating, B. signalgrass [10, 22]: 0 | B. signalgrass plant response rating [10, 23]: 0 | B. signalgrass plant response rating (0 to 10 scale, 0 is no effect, 10 is complete control) ([10]; Preemergence, Rate 125 g/ha): 0 | B. signalgrass plant response rating [10, 24]: 0 | B. signalgrass plant response rating [10, 28]: 0 | B. signalgrass plant response rating [10, 25]: 0 | Plant response rating, B. signalgrass [10, 26]: 0 | Plant response rating, B. signalgrass [10, 27]: 0 | S. Flatsedge plant response rating [11, 18]: 0 | S. Flatsedge plant response rating [11, 19]: 0 | S. Flatsedge plant response rating [11, 20]: 0 | S. Flatsedge plant response rating [11, 21]: 0 | Plant response rating, Wheat [12, 22]: 0 | Wheat plant response rating [12, 23]: 0 | Wheat plant response rating (0 to 10 scale) ([12]; Preemergence, Rate 125 g/ha): 0 | Wheat plant response rating [12, 24]: 0 | Wheat plant response rating [12, 28]: 0 | Wheat plant response rating [12, 25]: 0 | Plant response rating, Wheat [12, 27]: 0 | Barnyardgrass plant response rating [13, 18]: 0 | Barnyardgrass plant response rating [13, 19]: 0 | Barnyardgrass plant response rating [13, 20]: 0 | Barnyardgrass plant response rating [13, 21]: 4 | Plant response rating, Crabgrass [14, 22]: 0 | Crabgrass plant response rating [14, 23]: 0 | Crabgrass plant response rating (0 to 10 scale) ([14]; Preemergence, Rate 125 g/ha): 0 | Crabgrass plant response rating [14, 24]: 2 | Crabgrass plant response rating [14, 28]: 2 | Crabgrass plant response rating [14, 25]: 0 | Plant response rating, Crabgrass [14, 27]: 0 | Plant response rating, Wild oats [15, 22]: 0 | Wild oats plant response rating [15, 23]: 0 | Wild oats plant response rating (0 to 10 scale) ([15]; Preemergence, Rate 125 g/ha): 0 | Wild oats plant response rating [15, 24]: 0 | Wild oats plant response rating [15, 28]: 0 | Wild oats plant response rating [15, 25]: 0 | Plant response rating, Wild oats [15, 27]: 0 | Plant response rating, Velvetleaf [16, 22]: 0 | Velvetleaf plant response rating [16, 23]: 0 | Velvetleaf plant response rating (0 to 10 scale) ([16]; Preemergence, Rate 125 g/ha): 0 | Velvetleaf plant response rating [16, 24]: 0 | Velvetleaf plant response rating [16, 28]: 0 | Velvetleaf plant response rating [16, 25]: 0 | Plant response rating, Velvetleaf [16, 27]: 0 | Plant response rating, Cocklebur [17, 22]: 0 | Cocklebur plant response rating [17, 23]: 0 | Cocklebur plant response rating (0 to 10 scale) ([17]; Preemergence, Rate 125 g/ha): 0 | Cocklebur plant response rating [17, 24]: 0 | Cocklebur plant response rating [17, 28]: 0 | Cocklebur plant response rating [17, 25]: 0 | Plant response rating, Cocklebur [17, 27]: 0
